Assay results published in ChEMBL document CHEMBL3885861, “Open TG-GATES”.

Species: Rattus norvegicus
Assay: Open TG-GATES - Regimen: Single
Type: toxicity, organism-based, Sprague-Dawley
Set-up: regimen Single, gender Male, age 6 weeks
Settings: in vivo, po, 15 mg/kg, route gavage, dose level Low; for APTT / Bas / Eos / Fbg / Hb / Ht / Lym / MCHC / MCV / Mono / Neu / PT / Plat / RBC / Ret / WBC: tissue Blood; for KIDNEY_L / KIDNEY_R / KIDNEY_TOTAL: tissue Kidney; for LIVER: tissue Liver; for ALP / ALT / AST / BUN / CRE / Ca / Cl / DBIL / GLC / IP / K / LDH / Na / PL / RALB / TBIL / TC / TG / TP / gamma-GTP: tissue Plasma

For `C1CCC(C(CC2CCCCN2)C2CCCCC2)CC1` (centres undefined) [PERHEXILINE], the TERMINAL_BW (3 h) was 217 g, the APTT (3 h) was 20.2 s and the Bas (3 h) was 0%. The Eos (3 h) was 0.6%, the Fbg (3 h) was 331 mg/dL and the Hb (3 h) was 13.3 g/dL. The Ht (3 h) was 39.6%, the Lym (3 h) was 79.8% and the MCHC (3 h) was 33.5%. For the same molecule, the MCV (3 h) was 63.8 fL, the Mono (3 h) was 1.8% and the Neu (3 h) was 16.8%. For the same molecule, the PT (3 h) was 15.6 s, the Plat (3 h) was 121.9 x10_4/uL and the RBC (3 h) was 620.8 x10_4/ul. It also gave a Ret (3 h) of 7.8%, a WBC (3 h) of 62.3 x10_2/uL and a KIDNEY_L (3 h) of 1 g. The KIDNEY_R (3 h) was 1 g, the KIDNEY_TOTAL (3 h) was 1.9 g and the LIVER (3 h) was 10.1 g. For the same molecule, the ALP (3 h) was 1601.6 IU/L, the ALT (3 h) was 47 IU/L and the AST (3 h) was 74 IU/L. It also gave a BUN (3 h) of 13 mg/dL, a CRE (3 h) of 0.1 mg/dL and a Ca (3 h) of 11 mg/dL. For the same molecule, the Cl (3 h) was 105.6 meq/L, the DBIL (3 h) was 0.002 mg/dL and the GLC (3 h) was 181.2 mg/dL. The IP (3 h) was 8.6 mg/dL, the K (3 h) was 4 meq/L and the LDH (3 h) was 183.8 IU/L. The Na (3 h) was 140.8 meq/L, the PL (3 h) was 149.4 mg/dL and the RALB (3 h) was 3.2 g/dL. The TBIL (3 h) was 0.022 mg/dL, the TC (3 h) was 81.2 mg/dL and the TG (3 h) was 90.2 mg/dL. It also gave a TP (3 h) of 5.7 g/dL, a gamma-GTP (3 h) of 0.6 IU/L and a TERMINAL_BW (6 h) of 212 g. For the same molecule, the APTT (6 h) was 20.7 s, the Bas (6 h) was 0% and the Eos (6 h) was 0.8%. It also gave a Fbg (6 h) of 320.2 mg/dL, a Hb (6 h) of 13.1 g/dL and a Ht (6 h) of 39.6%. It also gave a Lym (6 h) of 79.6%, an MCHC (6 h) of 33.1% and an MCV (6 h) of 64.4 fL. For the same molecule, the Mono (6 h) was 2%, the Neu (6 h) was 16.4% and the PT (6 h) was 15.6 s. The Plat (6 h) was 134.6 x10_4/uL, the RBC (6 h) was 615.4 x10_4/ul and the Ret (6 h) was 7.9%. For the same molecule, the WBC (6 h) was 77.4 x10_2/uL, the KIDNEY_L (6 h) was 1 g and the KIDNEY_R (6 h) was 1 g. The KIDNEY_TOTAL (6 h) was 2 g, the LIVER (6 h) was 9.5 g and the ALP (6 h) was 1590.2 IU/L. For the same molecule, the ALT (6 h) was 39 IU/L, the AST (6 h) was 70 IU/L and the BUN (6 h) was 10.6 mg/dL. The CRE (6 h) was 0.1 mg/dL, the Ca (6 h) was 10.9 mg/dL and the Cl (6 h) was 105.8 meq/L. For the same molecule, the DBIL (6 h) was 0 mg/dL, the GLC (6 h) was 170.4 mg/dL and the IP (6 h) was 9.5 mg/dL. It also gave a K (6 h) of 4.4 meq/L, an LDH (6 h) of 209.6 IU/L and a Na (6 h) of 139.2 meq/L. For the same molecule, the PL (6 h) was 134.6 mg/dL, the RALB (6 h) was 3.1 g/dL and the TBIL (6 h) was 0.018 mg/dL. For the same molecule, the TC (6 h) was 77.2 mg/dL, the TG (6 h) was 73.6 mg/dL and the TP (6 h) was 5.6 g/dL. For the same molecule, the gamma-GTP (6 h) was 1 IU/L, the TERMINAL_BW (9 h) was 204.6 g and the APTT (9 h) was 21.4 s. The Bas (9 h) was 0%, the Eos (9 h) was 0.8% and the Fbg (9 h) was 303.4 mg/dL. It also gave a Hb (9 h) of 12.8 g/dL, a Ht (9 h) of 38.4% and a Lym (9 h) of 76.2%. For the same molecule, the MCHC (9 h) was 33.5%, the MCV (9 h) was 62.1 fL and the Mono (9 h) was 1.6%. The Neu (9 h) was 21%, the PT (9 h) was 15.5 s and the Plat (9 h) was 127.1 x10_4/uL. The RBC (9 h) was 619.8 x10_4/ul, the Ret (9 h) was 7% and the WBC (9 h) was 67.3 x10_2/uL. For the same molecule, the KIDNEY_L (9 h) was 1 g, the KIDNEY_R (9 h) was 1 g and the KIDNEY_TOTAL (9 h) was 2 g. For the same molecule, the LIVER (9 h) was 8.9 g, the ALP (9 h) was 1312.6 IU/L and the ALT (9 h) was 38 IU/L. For the same molecule, the AST (9 h) was 65.8 IU/L, the BUN (9 h) was 10.2 mg/dL and the CRE (9 h) was 0.1 mg/dL. It also gave a Ca (9 h) of 11 mg/dL, a Cl (9 h) of 105.6 meq/L and a DBIL (9 h) of 0.004 mg/dL. The GLC (9 h) was 172 mg/dL, the IP (9 h) was 9.4 mg/dL and the K (9 h) was 3.9 meq/L. For the same molecule, the LDH (9 h) was 186.2 IU/L, the Na (9 h) was 139.6 meq/L and the PL (9 h) was 124.4 mg/dL. It also gave an RALB (9 h) of 3.1 g/dL, a TBIL (9 h) of 0.014 mg/dL and a TC (9 h) of 68.8 mg/dL. It also gave a TG (9 h) of 49.2 mg/dL, a TP (9 h) of 5.7 g/dL and a gamma-GTP (9 h) of 1 IU/L. The TERMINAL_BW (24 h) was 216.9 g, the APTT (24 h) was 20.4 s and the Bas (24 h) was 0%. The Eos (24 h) was 0.8%, the Fbg (24 h) was 319.6 mg/dL and the Hb (24 h) was 13.3 g/dL. The Ht (24 h) was 39.1%, the Lym (24 h) was 77.8% and the MCHC (24 h) was 34.1%. The MCV (24 h) was 63.5 fL, the Mono (24 h) was 1.8% and the Neu (24 h) was 18.6%. The PT (24 h) was 15.8 s, the Plat (24 h) was 130.2 x10_4/uL and the RBC (24 h) was 616.8 x10_4/ul. It also gave a Ret (24 h) of 6.2%, a WBC (24 h) of 108.7 x10_2/uL and a KIDNEY_L (24 h) of 1 g. The KIDNEY_R (24 h) was 1 g, the KIDNEY_TOTAL (24 h) was 1.9 g and the LIVER (24 h) was 10 g. For the same molecule, the ALP (24 h) was 1593 IU/L, the ALT (24 h) was 47 IU/L and the AST (24 h) was 70.6 IU/L. For the same molecule, the BUN (24 h) was 17 mg/dL, the CRE (24 h) was 0.1 mg/dL and the Ca (24 h) was 10.8 mg/dL. It also gave a Cl (24 h) of 106.8 meq/L, a DBIL (24 h) of 0 mg/dL and a GLC (24 h) of 185.6 mg/dL. The IP (24 h) was 7.1 mg/dL, the K (24 h) was 4.1 meq/L and the LDH (24 h) was 212.8 IU/L. For the same molecule, the Na (24 h) was 142 meq/L, the PL (24 h) was 158.8 mg/dL and the RALB (24 h) was 3.2 g/dL. It also gave a TBIL (24 h) of 0.012 mg/dL, a TC (24 h) of 81.8 mg/dL and a TG (24 h) of 122 mg/dL. The TP (24 h) was 5.7 g/dL and the gamma-GTP (24 h) was 1 IU/L.
